Measured values taken from patent US7122184B2, “Specific monoclonal antibody against terbinafine” (Novartis AG, priority 2000, dated 2006).

Experiments:
[1] = tested on: purified antibodies from hybridoma cell line LAM-JA; assay: Competitive ELISA for terbinafine derivatives (crossreactivity); assay type: binding, mice; conditions: for Inhibition (%) at terbinafine concentration (μg/ml) 0.0001: competitor 0.0001 μg/ml; for Inhibition (%) at terbinafine concentration (μg/ml) 0.0001 / Inhibition (%) at terbinafine concentration (μg/ml) 0.001 / Inhibition (%) at terbinafine concentration (μg/ml) 0.01 / Inhibition (%) at terbinafine concentration (μg/ml) 0.1 / Inhibition (%) at terbinafine concentration (μg/ml) 1 / Inhibition (%) at terbinafine concentration (μg/ml) 10: mAb LAM-JA binding to terbinafine-BSA conjugate; for Inhibition (%) at terbinafine concentration (μg/ml) 0.001: competitor 0.001 μg/ml; for Inhibition (%) at terbinafine concentration (μg/ml) 0.01: competitor 0.01 μg/ml; for Inhibition (%) at terbinafine concentration (μg/ml) 0.1: competitor 0.1 μg/ml; for Inhibition (%) at terbinafine concentration (μg/ml) 1: competitor 1 μg/ml; for Inhibition (%) at terbinafine concentration (μg/ml) 10: competitor 10 μg/ml; for % crossreactivity: relative to terbinafine at B/B0=50%, calculated from FIG. 1, mAb LAM-JA
From the text: The antibodies of the invention are screened and characterized in conventional manner, e.g. according to their ability to distinguish between terbinafine and its metabolites and derivatives, e.g. by determination of relative cross-reactivity. […] (1994), Stockton Press, p. 89). Relative crossreactivity is the concentration of analyte giving 50% at the point where the reduction in signal corresponds to 50% of the signal achieved in the absence of analyte (ratio B/B0 of 50%), as a percentage of the analyte concentration giving the same fall in signal.
Microtiter plates are coated with 5 μg/ml terbinafine hydrochloride—protein (BSA) conjugate in carbonate buffer overnight at 4°, then saturated with blocking reagent [SuperBloc® buffer (Pierce)] and washed 3× with 0.05% (v/v) PBS-TWEEN® (polyoxyethylene 20 sorbitan monoleate). The hybridoma supernatants to be screened are diluted in a 1% (w/v) solution of BSA in PBS-TWEEN® (polyoxyethylene 20 sorbitan monoleate), and incubated for 2 hours at 37°. Level of bound antibody is measured by anti-mouse IgG rabbit immunoglobulin coupled to horseradish peroxidase with OPD as the substrate. After incubation for one hour at room temperature the enzymatic substrate is hydrolyzed and absorbance at 490/650 nm is measured after 15 minutes incubation in the dark.
The direct ELISA according to Example 3 above is converted to a competitive ELISA wherein a competitor is added to the monoclonal antibody solution, and binding of the mAB to the conjugate in the presence and absence of the competitor is measured. Standard curves to determine cross-reactivity of a selected antibody to terbinafine and its derivatives are prepared using solutions containing known concentrations of terbinafine and appropriate derivatives (e.g. 10 μ/ml to 0.0001 μg/ml in buffer).
The result of such competitive assay for the purified antibodies from hybridoma cell line LAM-JA (where the immunogen used was carboxy-terbinafine coupled to OVA), is as follows:
The measurement of antibody response to substances other than the analyte is the crossreactivity. It may be “expressed as the point where the reduction in signal corresponds to 50% of the signal achieved in the absence of analyte (B/B0=50%), as a percentage of the analyte concentration giving the same fall in signal” [The Immunoassay Handbook, David Wild, Stockton Press, USA, 1994].
% crossreactivity is calculated as follows from FIG. 1: […]

[2] = HPLC and UV detection of terbinafine metabolites in the nail matrix; conditions: HPLC with UV detection
From the text: Thus, in relation to the cross-reactivities of the antibodies of the invention with the above metabolites (see Example 4), no detection interferences are likely to be encountered with terbinafine in nails.

Row | SMILES | presence in the nail matrix [2] | Inhibition (%) at terbinafine concentration (μg/ml) 0.0001 [1] [%] | Inhibition (%) at terbinafine concentration (μg/ml) 0.001 [1] [%] | Inhibition (%) at terbinafine concentration (μg/ml) 0.01 [1] [%] | Inhibition (%) at terbinafine concentration (μg/ml) 0.1 [1] [%] | Inhibition (%) at terbinafine concentration (μg/ml) 1 [1] [%] | Inhibition (%) at terbinafine concentration (μg/ml) 10 [1] [%] | % crossreactivity [1]
1 | CC(C)(C#C/C=C/CNCc1cccc2ccccc12)C(=O)O [Desmethyl-carboxy-terbinafine, (E)-2,2-dimethyl-7-[(naphthalen-1-ylmethyl)amino]hept-5-en-3-ynoic acid] | – | 2.81 | 1.38 | 3.74 | 4.40 | 3.85 | 12.1 | not detectable
2 | CC(C)(C#C/C=C/CNCc1cccc2ccccc12)CO [Desmethyl-hydroxy-terbinafine, (E)-2,2-dimethyl-7-[(naphthalen-1-ylmethyl)amino]hept-5-en-3-yn-1-ol] | no hint for the presence | 3.60 | 0.79 | 1.60 | 5.30 | 15.7 | 58.0 | 4.5%
3 | CN(C/C=C/C#CC(C)(C)C)Cc1cccc2ccccc12 [Terbinafine ch, (E)-N-(6,6-dimethylhept-2-en-4-ynyl)-N-methyl-1-naphthalene methanamine] | – | 0.99 | −1.92 | 2.70 | 31.5 | 73.8 | 92.6 | –

Second part, led by results:

Row | presence in the nail matrix [2] | SMILES | Inhibition (%) at terbinafine concentration (μg/ml) 0.0001 [1] [%] | Inhibition (%) at terbinafine concentration (μg/ml) 0.001 [1] [%] | Inhibition (%) at terbinafine concentration (μg/ml) 0.01 [1] [%] | Inhibition (%) at terbinafine concentration (μg/ml) 0.1 [1] [%] | Inhibition (%) at terbinafine concentration (μg/ml) 1 [1] [%] | Inhibition (%) at terbinafine concentration (μg/ml) 10 [1] [%] | % crossreactivity [1]
4 | no hint for the presence | CN(C/C=C/C#CC(C)(C)C(=O)O)Cc1cccc2ccccc12 [Carboxy-terbinafine, (E)-2,2-dimethyl-7-[methyl(naphthalen-1-ylmethyl)amino]hept-5-en-3-ynoic acid] | 0.85 | 2.11 | 4.30 | 25.8 | 63.8 | 89.2 | –
5 | measurable | CC(C)(C)C#C/C=C/CNCc1cccc2ccccc12 [Desmethyl-terbinafine ch, (E)-N-(6,6-dimethylhept-2-en-4-ynyl)-1-naphthalenemethanamine] | −0.45 | −0.14 | 1.55 | 1.22 | 5.96 | 7.87 | not detectable
6 | no hint for the presence | CN(C/C=C/C#CC(C)(C)CO)Cc1cccc2ccccc12 [Hydroxy-terbinafine, (E)-2,2-dimethyl-7-[methyl(naphthalen-1-ylmethyl)amino]hept-5-en-3-yn-1-ol] | 0.40 | 0.56 | 3.74 | 72.5 | 92.9 | 93.0 | –
